The test system of experiment [1] is Normal human epidermal melanocytes (F52; p5). Briefly: Melanin assay (melanogenesis) in normal pigmented human melanocytes. Format: cell-based. To be noted: 72 h; for Changes in melanin levels, F52 EM % change: L-18 0.001%, L-19 1%, L-20 0.5%, L-21 10 μg/ml, L-22 1%, L-23 0.05 μg/ml, IBMX 100 μM, NH4Cl 100 μM, niacinamide 10 μM, vs basal; for Melanin content, F52 EM (pg/cell): same doses as E1, basal 35.63. On the procedure:
Cells were then washed 3-times with sterile PBS and supplemented with 350 μl of either fresh serum-free RPMI medium (melanoma cells) or starved serum-free and BPE-free melanocyte medium (EM) and incubated at 37° C. and 5% CO2 for 24 h. Cells were then washed with sterile PBS 3-times and incubated with IBMX 1×10^-4 M at 37° C. and 5% CO2 for 12, 24, and 72 h. Cells were then gently washed 3-times with sterile PBS and fixed in ice-cold methanol for 10 minutes at -20° C. Slides were stored at -20° C. until immunocytochemistry was performed. […] The melanin standards were pipetted into a 96 well plate to produce a calibration curve for the assessment of melanin content in the test samples. 400 μl of 1 M NaOH was added to each cell pellet and dissolved on a heat block (100° C.) for 15 minutes. The pellets were vortexed vigorously and the solubilized pellet was pipetted into the same 96-well plate. The optical densities of the sample were read at […] on a DYNEX REVELATION 4.02 program. Melanin content of each test sample was read from the calibration curve. […] In addition IBMX and NH4Cl (positive melanocytic modulators) and niacinamide (negative modulator) were used as controls. Visible change was not particularly evident in normal melanocyte due to their already high basal melanin levels (FIG. 1). By contrast, visible change was evident in melanoma cells basal melanin levels were low (FIG. 2). […] Normal human epidermal melanocytes (Female-52; p5) were treated for 72 h with L-18 (0.001%), L-19 (1%), L-20 (0.5%), L-21 (10 μg/ml), L-22 (1%) and L-23 (0.05 μg/ml). Controls: Melanocytic modulators: IBMX (100 μM), NH4Cl (100 μM), and niacinamide (10 μM). (A) Melanin content was determined spectro-photometrically (475 nm) after sodium hydroxide solubilise (B) Visible change was not particularly evident in these cells due to their already high basal melanin levels. Results were expressed as change in melanin content (pg/cell) compared to unstimulated control levels. Means are ±SEM of 3 independent experiments with *P<0.05, **P<0.01, ***P<0.001. NS-Not Significant

The test system of experiment [2] is tyrosinase. Briefly: DOPA oxidase detection for tyrosinase activity in pigmented normal human melanocytes. Format: cell-based. To be noted: 72 h; for Changes in tyrosinase activity, F52 EMc % change / % Change in EM Tyrosinase Activity vs. Basal EM level (i.e. 0), EM: L-18 0.001%, L-23 0.05 μg/ml, IBMX 100 μM, niacinamide 10 μM; for Changes in tyrosinase activity, F52 EMc % change: L-19 1%, L-20 0.5%, L-21 10 μg/ml, L-22 1%, NH4Cl 100 μM, vs basal; for % Change in EM Tyrosinase Activity vs. Basal EM level (i.e. 0), EM: EM monoculture (F52). The method, then:
The cells were prepared for SDS-PAGE and transblotted onto PVDF membranes. 70 μg of un-reduced protein extract without boiling was pipetted into the appropriate wells of 8% SDS-PAGE gels. […] The L-DOPA reaction was stopped by washing the membrane in distilled water and the membrane was scanned. […] In addition IBMX and NH4Cl (positive melanocytic modulators) and niacinamide (negative modulator) were used as controls. […] Normal human epidermal melanocytes (Female-52; p5) were treated for 72 h with L-18 (0.001%), L-19 (1%), L-20 (0.5%), L-21 (10 μg/ml), LVMH-22 (1%) and L-23 (0.05 μg/ml). Controls: Melanocytic modulators: IBMX (100 μM), NH4Cl (100 μM), and niacinamide (10 μM). (A) Protein extracts were electroblotted and membranes stained with L-DOPA for the estimation of tyrosinase activity.

The subject of experiment [3] is melanosome transfer from melanocytes to matched keratinocytes. Briefly: Quantitative analysis of gp100-positive melanosome transfer in melanocyte-keratinocyte co-culture. Format: cell-based, human. The note with it: for gp 100+ Spots/KC / % Change of Melanin Transfer vs. Basal: 24 h; for gp 100+ Spots/KC: co-culture F39, L-18 0.001%, L-19 1%, L-20 0.5%, L-21 10 μg/ml, L-22 1%, L-23 0.05 μg/ml, basal 27.3; for % Change of Melanin Transfer vs. Basal: same doses as E10. On the procedure:
Quantitative analysis of melanosome transfer: Fully-matched epidermal melanocytes (p4) and epidermal keratinocytes (p2) from 4 normal individuals (i.e., F39; F67; F54; F52) were maintained in 8-well Lab-Tek® chamber slides at a total cell density of 2×10^4 cells/well and in a ratio of 1 melanocyte to 10 normal keratinocytes. The co-culture was maintained for further 24 h before washing 3-times with sterile PBS before incubation with starved medium alone, or L-18 (0.001%), L-19 (1%), L-20 (0.5%), L-21 (10 μg/ml), L-22 (1%) and L-23 (0.05 μg/ml) for 12 and 72 h. Controls included IBMX (100 μM) and niacinamide (10 μM). Cells were then processed for immunofluorescence staining with gp100 to assess melanosome transfer to keratinocytes.
Evaluation of melanosome transfer was performed by counting fluorescent gp100-positive spots within recipient keratinocytes in 5 random microscopic fields per well at 100× magnification (oil-immersion) in 3 independent experiments. To avoid counting melanin granules that may still be associated with melanocytes, we only counted gp100-positive spots within keratinocytes that were not in direct contact with melanocytes.
Gp100 immunostaining provides a powerful tracking method for the global assessment of melanin transfer to keratinocytes, and for the evaluation of melanocyte phenotype modulators (Singh et al., 2008). […] In this assay melanosome transfer from melanocytes to matched keratinocytes under basal (i.e., unstimulated) conditions was determined at an average of 27.3 gp100-positive spots per keratinocyte. However, this was increased almost 4-fold after 24 h stimulation of co-cultures with IBMX to 99.5 gp100-positive spots per keratinocyte. Conversely, niacinamide reduced melanosome transfer by 28% (19.6 gp100-positive spots per keratinocyte; p<0.01; a result that correlates with its clinical use as a lightener of cutaneous pigmentation (Hakozaki et al, 2002; Greatens et al., 2005).
Means are ±SEM of 4 independent experiments with **P<0.01, ***P<0.001.

In experiment [4] the test system is tyrosinase. Briefly: Tyrosinase activity in normal human melanocyte and keratinocyte co-culture (EM:KC). Format: cell-based. To be noted: 72 h; for % Change in EM Tyrosinase Activity of stimulated EM vs. stimulated EM-EK) level (i.e. 12.16): co-culture versus monoculture under the same stimulus; for % Change in EM Tyrosinase Activity vs. Basal EM level (i.e. 0), EM-EK: matched EM-EK co-culture (F52), L-18 0.001%, L-23 0.05 μg/ml, IBMX 100 μM, niacinamide 10 μM, basal co-culture +12.16. On the procedure:
The cells were prepared for SDS-PAGE and transblotted onto PVDF membranes. 70 μg of un-reduced protein extract without boiling was pipetted into the appropriate wells of 8% SDS-PAGE gels. […] The L-DOPA reaction was stopped by washing the membrane in distilled water and the membrane was scanned. […] Normal human epidermal melanocyte culture (Female-52; p5) and matched co-culture […] MC-KC were treated for 72 h with L-18 (0.001%), L-23 (0.05 μg/ml). Controls: Melanocytic modulators: IBMX (100 μM), and niacinamide (10 μM). Negative control lane: Keratinocytes only (A) Protein extracts were electroblotted and membranes stained with L-DOPA for the estimation of tyrosinase activity. (B) Densitometric scanning of band intensities and values were expressed as the fold increase compared to unstimulated control levels. Means are ±SEM of 3 independent experiments with *P<0.05, **P<0.01, ***P<0.001.

In the case of `NC(=O)c1cccnc1` [niacinamide], in experiment [1], the “Changes in melanin levels, F52 EM % change” value is on record as −4.01% and the “Melanin content, F52 EM (pg/cell)” value is on record as “(34.2) pg/cell”. Besides, in the experiment with tyrosinase [2], the “Changes in tyrosinase activity, F52 EMc % change” value was −4.58% and the “% Change in EM Tyrosinase Activity vs. Basal EM level (i.e. 0), EM” value is −2.12%. In addition, the “gp 100+ Spots/KC” value in experiment [3] (IBMX 100 μM, niacinamide 10 μM) is on record as 19.6 Spots/KC. Further, in experiment [3], the “% Change of Melanin Transfer vs. Basal” value is −28%. Also, in experiment [3] (niacinamide 10 μM, p<0.01), the “melanosome transfer reduced by” value is given as 28%. For the same compound, in the experiment on tyrosinase [4], the “% Change in EM Tyrosinase Activity of stimulated EM vs. stimulated EM-EK) level (i.e. 12.16)” value is recorded as −18.84% and the “% Change in EM Tyrosinase Activity vs. Basal EM level (i.e. 0), EM-EK” value is reported as −20.50%.
On to `CC(C)Cn1c(=O)n(C)c(=O)c2[nH]cnc21` [IBMX], for which, in experiment [1], the “Changes in melanin levels, F52 EM % change” value is “+74.57%” and the “Melanin content, F52 EM (pg/cell)” value is on record as “(62.2) pg/cell”. Further, in the experiment with tyrosinase [2], the “Changes in tyrosinase activity, F52 EMc % change” value is “+72.47%” and the “% Change in EM Tyrosinase Activity vs. Basal EM level (i.e. 0), EM” value is “+56.51%”. Also, the “effect on tyrosinase (dopa oxidase) activity compared with basal levels” value in the experiment on tyrosinase [2] (normal melanocytes (EM), doses as E5) is “dramatic increase in dopa oxidase activity of tyrosinase”. Moreover, the “gp 100+ Spots/KC” value in experiment [3] (IBMX 100 μM, niacinamide 10 μM) was 99.5 Spots/KC. In addition, the “% Change of Melanin Transfer vs. Basal” value in experiment [3] is “+264%”. Besides, the “melanosome transfer increased, fold versus basal” value in experiment [3] (24 h stimulation of co-cultures, IBMX 100 μM) is given as approximately 4 fold. In addition, in the experiment with tyrosinase [4], the “% Change in EM Tyrosinase Activity of stimulated EM vs. stimulated EM-EK) level (i.e. 12.16)” value was “+23.57%” and the “% Change in EM Tyrosinase Activity vs. Basal EM level (i.e. 0), EM-EK” value is “+93.41%”.
